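Cultured in 96-well plates, cells were exposed to test compound for 48 hours across five concentrations. Here, GI50 denotes the concentration required for 50% inhibition of growth. TGI marks complete inhibition of growth.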
What was measured:
Experiment in all cases: NCI anticancer screen, dose series, 48 h; in the data active = GI50 below about 0.43 µM; inactive = the rest
786-0 renal = system: 786-0 renal
A498 renal = system: A498 renal
A549 NSCLC = system: A549 NSCLC
ACHN renal = system: ACHN renal
BT-549 breast = system: BT-549 breast
CAKI-1 renal = system: CAKI-1 renal
CCRF-CEM leukemia = system: CCRF-CEM leukemia
COLO 205 colon = system: COLO 205 colon
DU-145 prostate = system: DU-145 prostate
EKVX NSCLC = system: EKVX NSCLC
HCC-2998 colon = system: HCC-2998 colon
HCT-116 colon = system: HCT-116 colon
HCT-15 colon = system: HCT-15 colon
HL-60(TB) leukemia = system: HL-60(TB) leukemia
HOP-62 NSCLC = system: HOP-62 NSCLC
HOP-92 NSCLC = system: HOP-92 NSCLC
HT29 colon = system: HT29 colon
K-562 leukemia = system: K-562 leukemia
KM12 colon = system: KM12 colon
LOX IMVI melanoma = system: LOX IMVI melanoma
M14 melanoma = system: M14 melanoma
MALME-3M melanoma = system: MALME-3M melanoma
MCF7 breast = system: MCF7 breast
MDA-MB-231 breast = system: MDA-MB-231 breast
MDA-MB-435 = system: MDA-MB-435
MOLT-4 leukemia = system: MOLT-4 leukemia
NCI-H226 lung = system: NCI-H226 lung
NCI-H23 lung = system: NCI-H23 lung
NCI-H460 lung = system: NCI-H460 lung
NCI-H522 lung = system: NCI-H522 lung
NCI/ADR-RES ovarian = system: NCI/ADR-RES ovarian
OVCAR-3 ovarian = system: OVCAR-3 ovarian
OVCAR-4 ovarian = system: OVCAR-4 ovarian
OVCAR-5 ovarian = system: OVCAR-5 ovarian
OVCAR-8 ovarian = system: OVCAR-8 ovarian
PC-3 prostate = system: PC-3 prostate
RPMI-8226 leukemia = system: RPMI-8226 leukemia
RXF 393 renal = system: RXF 393 renal
SF-268 CNS = system: SF-268 CNS
SF-295 CNS = system: SF-295 CNS
SF-539 CNS = system: SF-539 CNS
SK-MEL-2 melanoma = system: SK-MEL-2 melanoma
SK-MEL-28 melanoma = system: SK-MEL-28 melanoma
SK-MEL-5 melanoma = system: SK-MEL-5 melanoma
SK-OV-3 ovarian = system: SK-OV-3 ovarian
SN12C renal = system: SN12C renal
SNB-19 CNS = system: SNB-19 CNS
SR leukemia = system: SR leukemia
SW-620 colon = system: SW-620 colon
T-47D breast = system: T-47D breast
TK-10 renal = system: TK-10 renal
U251 CNS = system: U251 CNS
UACC-257 melanoma = system: UACC-257 melanoma
UO-31 renal = system: UO-31 renal
HS 578T breast = system: HS 578T breast
IGROV1 ovarian = system: IGROV1 ovarian
SNB-75 CNS = system: SNB-75 CNS
UACC-62 melanoma = system: UACC-62 melanoma

NC(=O)c1nc(-c2c(F)cccc2Cl)oc1Nc1ccc(C(=O)N2CCOCC2)cc1
2.11 µM: TGI (HOP-92 NSCLC)
58.6 µM: TGI (SK-MEL-2 melanoma)
active: GI50 (CCRF-CEM leukemia) 0.4 µM | GI50 (HOP-92 NSCLC) 0.262 µM | GI50 (KM12 colon) 0.326 µM | GI50 (NCI-H226 lung) 0.266 µM
3.28 µM: TGI (A498 renal)
5.61 µM: TGI (LOX IMVI melanoma)
37.7 µM: TGI (MOLT-4 leukemia)
> 100 µM: TGI (786-0 renal) | TGI (A549 NSCLC) | TGI (ACHN renal) | TGI (CAKI-1 renal) | TGI (CCRF-CEM leukemia) | TGI (DU-145 prostate) | TGI (EKVX NSCLC) | TGI (HCC-2998 colon) | TGI (HCT-15 colon) | TGI (HOP-62 NSCLC) | TGI (HT29 colon) | TGI (K-562 leukemia) | TGI (KM12 colon) | TGI (M14 melanoma) | TGI (MCF7 breast) | TGI (MDA-MB-231 breast) | TGI (MDA-MB-435) | TGI (NCI-H226 lung) | TGI (NCI-H23 lung) | TGI (NCI-H460 lung) | TGI (NCI/ADR-RES ovarian) | TGI (OVCAR-3 ovarian) | TGI (OVCAR-4 ovarian) | TGI (OVCAR-5 ovarian) | TGI (OVCAR-8 ovarian) | TGI (PC-3 prostate) | TGI (SF-268 CNS) | TGI (SF-295 CNS) | TGI (SK-MEL-28 melanoma) | TGI (SN12C renal) | TGI (SNB-19 CNS) | TGI (SW-620 colon) | TGI (U251 CNS)
50.7 µM: TGI (RPMI-8226 leukemia)
5.54 µM: TGI (RXF 393 renal)
inactive: GI50 (786-0 renal) 2.18 µM | GI50 (A498 renal) 0.544 µM | GI50 (A549 NSCLC) 0.936 µM | GI50 (ACHN renal) 2.41 µM | GI50 (BT-549 breast) 3.62 µM | GI50 (CAKI-1 renal) 1.44 µM | GI50 (COLO 205 colon) 1.64 µM | GI50 (DU-145 prostate) 11.9 µM | GI50 (EKVX NSCLC) 12.2 µM | GI50 (HCC-2998 colon) 14.8 µM | GI50 (HCT-116 colon) 1.36 µM | GI50 (HCT-15 colon) 2.2 µM | GI50 (HL-60(TB) leukemia) 0.478 µM | GI50 (HOP-62 NSCLC) 2.08 µM | GI50 (HT29 colon) 1.62 µM | GI50 (K-562 leukemia) 4.66 µM | GI50 (LOX IMVI melanoma) 0.914 µM | GI50 (M14 melanoma) 13.7 µM | GI50 (MALME-3M melanoma) 13 µM | GI50 (MCF7 breast) 0.596 µM | GI50 (MDA-MB-231 breast) 1.86 µM | GI50 (MDA-MB-435) 2.03 µM | GI50 (MOLT-4 leukemia) 2.03 µM | GI50 (NCI-H23 lung) 2.91 µM | GI50 (NCI-H460 lung) 0.805 µM | GI50 (NCI-H522 lung) 2.11 µM | GI50 (NCI/ADR-RES ovarian) 6.23 µM | GI50 (OVCAR-3 ovarian) 10.3 µM | GI50 (OVCAR-4 ovarian) 28.4 µM | GI50 (OVCAR-5 ovarian) 2.31 µM | GI50 (OVCAR-8 ovarian) 5.83 µM | GI50 (PC-3 prostate) 7.83 µM | GI50 (RPMI-8226 leukemia) 7.44 µM | GI50 (RXF 393 renal) 0.964 µM | GI50 (SF-268 CNS) 3.07 µM | GI50 (SF-295 CNS) 1.61 µM | GI50 (SF-539 CNS) 1.32 µM | GI50 (SK-MEL-2 melanoma) 12.7 µM | GI50 (SK-MEL-28 melanoma) 13.9 µM | GI50 (SK-MEL-5 melanoma) 10.5 µM | GI50 (SK-OV-3 ovarian) 2.58 µM | GI50 (SN12C renal) 2.12 µM | GI50 (SNB-19 CNS) 3 µM | GI50 (SR leukemia) 1 µM | GI50 (SW-620 colon) 0.703 µM | GI50 (T-47D breast) 3.46 µM | GI50 (TK-10 renal) 2.33 µM | GI50 (U251 CNS) 2.25 µM | GI50 (UACC-257 melanoma) 11.9 µM | GI50 (UO-31 renal) 1.2 µM
75.2 µM: TGI (SK-OV-3 ovarian)
57.1 µM: TGI (NCI-H522 lung)
5.89 µM: TGI (COLO 205 colon)
20 µM: TGI (HCT-116 colon)
35.8 µM: TGI (SK-MEL-5 melanoma)
55.6 µM: TGI (MALME-3M melanoma)
54.6 µM: TGI (BT-549 breast)
34.2 µM: TGI (TK-10 renal)
25.8 µM: TGI (UO-31 renal)
84.7 µM: TGI (SR leukemia)
5.16 µM: TGI (SF-539 CNS)
31.7 µM: TGI (HL-60(TB) leukemia)
41.1 µM: TGI (UACC-257 melanoma)
62.7 µM: TGI (T-47D breast)

O=c1[nH]ncc2[nH]c3c(c12)CCc1ccccc1-3
98.9 µM: TGI (T-47D breast)
42.1 µM: TGI (SF-539 CNS)
59.2 µM: TGI (HS 578T breast)
40.7 µM: TGI (NCI-H226 lung)
61.8 µM: TGI (A498 renal)
81.8 µM: TGI (HOP-92 NSCLC)
57 µM: TGI (NCI-H522 lung)
57.7 µM: TGI (SK-MEL-2 melanoma)
81.2 µM: TGI (TK-10 renal)
30.2 µM: TGI (EKVX NSCLC)
> 100 µM: TGI (786-0 renal) | TGI (A549 NSCLC) | TGI (ACHN renal) | TGI (BT-549 breast) | TGI (CAKI-1 renal) | TGI (CCRF-CEM leukemia) | TGI (DU-145 prostate) | TGI (HCT-116 colon) | TGI (HCT-15 colon) | TGI (HOP-62 NSCLC) | TGI (HT29 colon) | TGI (K-562 leukemia) | TGI (KM12 colon) | TGI (LOX IMVI melanoma) | TGI (M14 melanoma) | TGI (MALME-3M melanoma) | TGI (MDA-MB-231 breast) | TGI (MDA-MB-435) | TGI (NCI-H23 lung) | TGI (NCI/ADR-RES ovarian) | TGI (OVCAR-3 ovarian) | TGI (OVCAR-4 ovarian) | TGI (OVCAR-5 ovarian) | TGI (OVCAR-8 ovarian) | TGI (PC-3 prostate) | TGI (SF-268 CNS) | TGI (SF-295 CNS) | TGI (SK-MEL-28 melanoma) | TGI (SK-OV-3 ovarian) | TGI (SN12C renal) | TGI (SNB-19 CNS) | TGI (SR leukemia) | TGI (SW-620 colon) | TGI (U251 CNS) | TGI (UACC-257 melanoma) | TGI (UO-31 renal)
76.1 µM: TGI (SNB-75 CNS)
44.3 µM: TGI (IGROV1 ovarian)
30.3 µM: TGI (COLO 205 colon)
69.7 µM: TGI (MOLT-4 leukemia)
42 µM: TGI (RXF 393 renal)
69 µM: TGI (HL-60(TB) leukemia)
25 µM: TGI (SK-MEL-5 melanoma)
70.7 µM: TGI (RPMI-8226 leukemia)
77 µM: TGI (NCI-H460 lung)

Cc1ccc(S(=O)(=O)N/N=c2/sc3ccccc3n2C)cc1
> 100 µM: TGI (786-0 renal) | TGI (A498 renal) | TGI (A549 NSCLC) | TGI (ACHN renal) | TGI (CAKI-1 renal) | TGI (CCRF-CEM leukemia) | TGI (COLO 205 colon) | TGI (DU-145 prostate) | TGI (EKVX NSCLC) | TGI (HCC-2998 colon) | TGI (HCT-116 colon) | TGI (HCT-15 colon) | TGI (HL-60(TB) leukemia) | TGI (HOP-62 NSCLC) | TGI (HOP-92 NSCLC) | TGI (HS 578T breast) | TGI (HT29 colon) | TGI (IGROV1 ovarian) | TGI (K-562 leukemia) | TGI (KM12 colon) | TGI (LOX IMVI melanoma) | TGI (MALME-3M melanoma) | TGI (MDA-MB-231 breast) | TGI (MDA-MB-435) | TGI (MOLT-4 leukemia) | TGI (NCI-H226 lung) | TGI (NCI-H23 lung) | TGI (NCI-H460 lung) | TGI (NCI-H522 lung) | TGI (NCI/ADR-RES ovarian) | TGI (OVCAR-4 ovarian) | TGI (OVCAR-5 ovarian) | TGI (OVCAR-8 ovarian) | TGI (PC-3 prostate) | TGI (RPMI-8226 leukemia) | TGI (RXF 393 renal) | TGI (SF-268 CNS) | TGI (SF-295 CNS) | TGI (SF-539 CNS) | TGI (SK-MEL-2 melanoma) | TGI (SK-MEL-28 melanoma) | TGI (SK-MEL-5 melanoma) | TGI (SK-OV-3 ovarian) | TGI (SN12C renal) | TGI (SNB-19 CNS) | TGI (SNB-75 CNS) | TGI (SR leukemia) | TGI (SW-620 colon) | TGI (T-47D breast) | TGI (TK-10 renal) | TGI (U251 CNS) | TGI (UACC-257 melanoma) | TGI (UACC-62 melanoma) | TGI (UO-31 renal)

— PubChem BioAssay (NCI)
